Reference: PMC10945555, “Improving Activity of New Arylurea Agents against Multidrug-Resistant and Biofilm-Producing Staphylococcus epidermidis” (ACS Medicinal Chemistry Letters, 2024)

What was measured:
Format in all cases: cell-based
[1] = tested on: biofilm-producing Staphylococcus epidermidis strains; assay: Biofilm eradication (MBEC Assay Kit)
[2] = tested on: Staphylococcus epidermidis ATCC 12228; assay: MIC, broth microdilution, MSSE reference strain; conditions: ATCC12228, Staphylococcus epidermidis ATCC 12228, read-out: MIC MSSE
From the text: These strains included susceptible, multidrug-resistant, and biofilm-producing strains of S. epidermidis and S. aureus (MSSE, MDR/BPSE, and MDR/BPSA, respectively). The cornerstone antibiotic linezolid served as a positive control (Table 1). The impact of structural modifications at the aryloxy fragment and the aromatic moiety bound to the propyl linker on the inhibitory activity was initially investigated. […] Further optimization focused on evaluating the impact of the type of substituent and its position on the arylsulfonamide fragment’s activity.
2 Biological assay protocols
Microbiological tests were carried out under aseptic conditions in a laminar chamber of the 2nd […]
(BioTectum 1.2, Alchem Poland). The assessment of antimicrobial activity was carried out for final compounds in the form of free bases, soluble in DMSO (Merck, Germany), at the initial […]
concentration of 1 mg/mL. […]
were provided by Cayman Chemical, USA.
The activity of all newly synthesized compounds was tested in vitro on a panel of selected reference strains from the American Type Culture Collection (ATCC) of Gram-positive […]
2.2 Effect of evaluated compounds on planktonic cells
The susceptibility of three reference bacterial strains (Staphylococcus epidermidis ATCC […]
Table S1) and 81 clinical MDR S. epidermidis (Table S2) to the tested compounds was assessed by determining the MIC value (Minimal Inhibitory Concentration) by microdilution in a liquid medium in 96-well flat-bottom cell culture plates (Nest Biotechnology Scientific, USA). The antibacterial properties of the compo unds were tested in the concentration range from 50 µg/mL to 0.1 µg/mL by making a series of double dilutions of the compound in liquid Mueller -Hinton II Broth Cation Adjusted (MHB II, BBL TM, USA) according to the European Committee on […]
Antimicrobial Susceptibility Testing guidelines (EUCAST).2,3 The determinations were performed twice. The MIC50 and MIC90 values were determined for each of the tested

[3] = tested on: biofilm-producing Staphylococcus epidermidis strains; assay: Inhibition of biofilm formation (MBIC, resazurin)
Procedure: After 24 hours incubation each well of
concentration of 4 mg/mL was added. […]

[4] = S. epidermidis ATCC 35984 (Table S4)

Molecule `O=S(=O)(NC1CCN(CCC(Oc2ccc(C(F)(F)F)cc2)c2ccccc2)CC1)c1cccc(Cl)c1` (stereo not shown) [Compound 12] has an MBEC [1, 4] of 31.25 µg/mL, an MBEC50 ([1]; Table S4 strains) of 125 µg/mL and an MBEC ([1]; clinical strain 1 (Table S4)) of 125 µg/mL. The MBEC ([1]; clinical strain 2 (Table S4)) was 125 µg/mL, the MBEC ([1]; clinical strain 3 (Table S4)) was 250 µg/mL and the MBEC ([1]; clinical strain 4 (Table S4)) was 125 µg/mL. For the same molecule, the MBEC ([1]; clinical strain 5 (Table S4)) was 125 µg/mL, the MBEC ([1]; clinical strain 6 (Table S4)) was 125 µg/mL and the MBEC ([1]; clinical strain 7 (Table S4)) was 125 µg/mL. For the same molecule, the MBEC ([1]; clinical strain 8 (Table S4)) was 62.5 µg/mL, the MBEC ([1]; clinical strain 9 (Table S4)) was 250 µg/mL and the MBEC ([1]; clinical strain 11 (Table S4)) was 125 µg/mL. For the same molecule, the MBEC ([1]; clinical strain 12 (Table S4)) was 125 µg/mL, the MBEC ([1]; clinical strain 13 (Table S4)) was 62.5 µg/mL and the MBEC ([1]; clinical strain 15 (Table S4)) was 125 µg/mL. The MBEC ([1]; clinical strain 16 (Table S4)) was 62.5 µg/mL, the MBEC ([1]; clinical strain 17 (Table S4)) was 62.5 µg/mL and the MBEC ([1]; clinical strain 19 (Table S4)) was 31.25 µg/mL. It also gave an MBEC ([1]; clinical strain 21 (Table S4)) of 125 µg/mL, an MBEC ([1]; clinical strain 22 (Table S4)) of 125 µg/mL and an MBEC ([1]; clinical strain 23 (Table S4)) of 31.25 µg/mL. It also gave an MBEC ([1]; clinical strain 25 (Table S4)) of 31.25 µg/mL, an MBEC ([1]; clinical strain 26 (Table S4)) of 250 µg/mL and an MBEC ([1]; clinical strain 27 (Table S4)) of 250 µg/mL. For the same molecule, the MBEC ([1]; clinical strain 28 (Table S4)) was 125 µg/mL, the MBEC ([1]; clinical strain 29 (Table S4)) was 125 µg/mL and the MBEC ([1]; clinical strain 30 (Table S4)) was 125 µg/mL. For the same molecule, the MBEC ([1]; clinical strain 33 (Table S4)) was 125 µg/mL, the MBEC ([1]; clinical strain 35 (Table S4)) was 125 µg/mL and the MBEC ([1]; clinical strain 36 (Table S4)) was 125 µg/mL. It also gave an MBEC ([1]; clinical strain 37 (Table S4)) of 125 µg/mL, an MBEC ([1]; clinical strain 39 (Table S4)) of 31.25 µg/mL and an MBEC ([1]; clinical strain 40 (Table S4)) of 125 µg/mL. For the same molecule, the MBEC ([1]; clinical strain 41 (Table S4)) was 125 µg/mL, the MBEC ([1]; clinical strain 42 (Table S4)) was 125 µg/mL and the MBEC ([1]; clinical strain 43 (Table S4)) was 250 µg/mL. The MBEC ([1]; clinical strain 44 (Table S4)) was 31.25 µg/mL, the MBEC ([1]; clinical strain 45 (Table S4)) was 125 µg/mL and the MBEC ([1]; clinical strain 46 (Table S4)) was 125 µg/mL. It also gave an MBEC ([1]; clinical strain 47 (Table S4)) of 62.5 µg/mL, an MBEC ([1]; clinical strain 49 (Table S4)) of 31.25 µg/mL and an MBEC ([1]; clinical strain 51 (Table S4)) of 250 µg/mL. For the same molecule, the MBEC ([1]; clinical strain 55 (Table S4)) was 125 µg/mL, the MBEC ([1]; clinical strain 58 (Table S4)) was 125 µg/mL and the MBEC ([1]; clinical strain 59 (Table S4)) was 125 µg/mL. For the same molecule, the MBEC ([1]; clinical strain 65 (Table S4)) was 125 µg/mL, the MBEC ([1]; clinical strain 66 (Table S4)) was 125 µg/mL and the MBEC ([1]; clinical strain 67 (Table S4)) was 125 µg/mL. It also gave an MBEC ([1]; clinical strain 70 (Table S4)) of 250 µg/mL, an MBEC ([1]; clinical strain 73 (Table S4)) of 31.25 µg/mL and an MBEC ([1]; clinical strain 74 (Table S4)) of 125 µg/mL. For the same molecule, the MBEC ([1]; clinical strain 75 (Table S4)) was 31.25 µg/mL, the MBEC ([1]; clinical strain 78 (Table S4)) was 31.25 µg/mL and the MBEC ([1]; clinical strain 79 (Table S4)) was 31.25 µg/mL. The MIC [2] was ≤ 6.25 µg/mL, the MBIC [3, 4] was 31.25 µg/mL and the MBIC50 ([3]; Table S4 strains) was 125 µg/mL. For the same molecule, the MBIC ([3]; clinical strain 1 (Table S4)) was 125 µg/mL, the MBIC ([3]; clinical strain 2 (Table S4)) was 125 µg/mL and the MBIC ([3]; clinical strain 3 (Table S4)) was 125 µg/mL. It also gave an MBIC ([3]; clinical strain 4 (Table S4)) of 125 µg/mL, an MBIC ([3]; clinical strain 5 (Table S4)) of 62.5 µg/mL and an MBIC ([3]; clinical strain 6 (Table S4)) of 125 µg/mL. For the same molecule, the MBIC ([3]; clinical strain 7 (Table S4)) was 125 µg/mL, the MBIC ([3]; clinical strain 8 (Table S4)) was 15.6 µg/mL and the MBIC ([3]; clinical strain 9 (Table S4)) was 125 µg/mL. The MBIC ([3]; clinical strain 11 (Table S4)) was 125 µg/mL, the MBIC ([3]; clinical strain 12 (Table S4)) was 125 µg/mL and the MBIC ([3]; clinical strain 13 (Table S4)) was 62.5 µg/mL. It also gave an MBIC ([3]; clinical strain 15 (Table S4)) of 125 µg/mL, an MBIC ([3]; clinical strain 16 (Table S4)) of 62.5 µg/mL and an MBIC ([3]; clinical strain 17 (Table S4)) of 62.5 µg/mL. The MBIC ([3]; clinical strain 19 (Table S4)) was 31.25 µg/mL, the MBIC ([3]; clinical strain 21 (Table S4)) was 125 µg/mL and the MBIC ([3]; clinical strain 22 (Table S4)) was 125 µg/mL. For the same molecule, the MBIC ([3]; clinical strain 23 (Table S4)) was 31.25 µg/mL, the MBIC ([3]; clinical strain 25 (Table S4, Figure 2)) was 31.25 µg/mL and the MBIC ([3]; clinical strain 26 (Table S4)) was 125 µg/mL. The MBIC ([3]; clinical strain 27 (Table S4)) was 250 µg/mL, the MBIC ([3]; clinical strain 28 (Table S4)) was 62.5 µg/mL and the MBIC ([3]; clinical strain 29 (Table S4)) was 62.5 µg/mL. The MBIC ([3]; clinical strain 30 (Table S4)) was 62.5 µg/mL, the MBIC ([3]; clinical strain 33 (Table S4)) was 125 µg/mL and the MBIC ([3]; clinical strain 35 (Table S4)) was 125 µg/mL. For the same molecule, the MBIC ([3]; clinical strain 36 (Table S4)) was 62.5 µg/mL, the MBIC ([3]; clinical strain 37 (Table S4)) was 125 µg/mL and the MBIC ([3]; clinical strain 39 (Table S4)) was 31.25 µg/mL. It also gave an MBIC ([3]; clinical strain 40 (Table S4)) of 125 µg/mL, an MBIC ([3]; clinical strain 41 (Table S4)) of 125 µg/mL and an MBIC ([3]; clinical strain 42 (Table S4)) of 125 µg/mL. It also gave an MBIC ([3]; clinical strain 43 (Table S4)) of 250 µg/mL, an MBIC ([3]; clinical strain 44 (Table S4)) of 31.25 µg/mL and an MBIC ([3]; clinical strain 45 (Table S4)) of 125 µg/mL. For the same molecule, the MBIC ([3]; clinical strain 46 (Table S4)) was 125 µg/mL, the MBIC ([3]; clinical strain 47 (Table S4)) was 62.5 µg/mL and the MBIC ([3]; clinical strain 49 (Table S4)) was 31.25 µg/mL. It also gave an MBIC ([3]; clinical strain 51 (Table S4)) of 125 µg/mL, an MBIC ([3]; clinical strain 55 (Table S4)) of 125 µg/mL and an MBIC ([3]; clinical strain 58 (Table S4)) of 125 µg/mL. It also gave an MBIC ([3]; clinical strain 59 (Table S4)) of 125 µg/mL, an MBIC ([3]; clinical strain 65 (Table S4)) of 125 µg/mL and an MBIC ([3]; clinical strain 66 (Table S4)) of 125 µg/mL. The MBIC ([3]; clinical strain 67 (Table S4)) was 125 µg/mL, the MBIC ([3]; clinical strain 70 (Table S4)) was 125 µg/mL and the MBIC ([3]; clinical strain 73 (Table S4)) was 31.25 µg/mL. For the same molecule, the MBIC ([3]; clinical strain 74 (Table S4)) was 125 µg/mL, the MBIC ([3]; clinical strain 75 (Table S4)) was 31.25 µg/mL and the MBIC ([3]; clinical strain 78 (Table S4)) was 31.25 µg/mL. For the same molecule, the MBIC ([3]; clinical strain 79 (Table S4)) was 31.25 µg/mL.
